According to patent publication US20140107170A1, “COMPOSITION COMPRISING ANGIOTENSIN II RECEPTOR ANTAGONIST AND ANTIOXIDANT FOR MAINTAINING AND/OR IMPROVING SKIN PROPERTIES” (priority 2011, published 2014):

Test system: Dermal fibroblast cells
Assay: Dermal fibroblast survival under oxidative stress (H2O2), MTS viability test, Example 3
Format: cell-based
Details: preincubation till the next day, H2O2 (1 mmol) 15 minutes, MTS after 24 hours, valsartan 1.0 μmol, vitamin A 1 μmol, vitamin C 100 μmol, vitamin E 10 μmol
Experimental: Dermal fibroblast cells were grown in Advanced MEM supplemented with antibiotics (penicillin-streptomycin), 5% fetal bovine serum and L-glutamine (2 mmol/l) at 37° C. in a CO2 incubator (5% CO2, 95% air, 95% relative humidity. Cells were detached with Tryple™select. For experiments the cells were seeded in 96-well microtitre plates at a density 5×10^3 cells/well (5×10^4 cells/ml). Two hours after seeding, when the cells attached to the surface, the medium was replaced with the medium supplemented with vitamins (ACE), valsartan or their combination. The cells were incubated till the next day and then treated with H2O2 (1 mmol) for 15 minutes. After the treatment with H2O2 the cells were washed three times with PBS and than incubated in medium for 24 hours. Then the MTS viability test was performed.

`CCCCC(=O)N(Cc1ccc(-c2ccccc2-c2nnn[nH]2)cc1)[C@H](C(=O)O)C(C)C` [Valsartan, valsartan] was tested, and the “% of survival after treatment with H2O2” value was 79% and the “% of survival after treatment with H2O2” value (listed as valsartan) was 79%.
